Assay results: patent publication US10905656B2, “Methods and compositions for treating arteriosclerotic vascular diseases” (GOLDEN BIOTECHNOLOGY CORPORATION, priority 2012, dated 2021)

Assays:
LDLR mRNA = LDLR mRNA expression in HepG2 by RT-PCR; assay type: cell-based, human; conditions: HepG2, after addition of compound
Procedure: FIG. 10A-B show results of LDLR mRNA expression in HepG2 cell line induced by an exemplary cyclohexenone Compound 1. HepG2 cell line was serum-starved overnight and challenged with 20 μM Compound 1 at indicated time intervals (1A). Cells were then collected and the mRNA expression level of LDLR and GAPDH (internal control) were detected by RT-PCR. The relative expression level of LDLR to GAPDH was quantified by densitometry (1B). Experiments were conducted in triplicate. Bar represented as mean±SEM. * indicates p<0.05 and ** indicates p<0.01.
HepG2 cells were cultured in MEM alpha medium (Invitrogen/Gibco BRL, Grand Island, N.Y., USA). Cells were cultured at 37° C. in 5% CO2 in culture media supplemented with 10% fetal bovine serum (Invitrogen/Gibco BRL) and 100 U/ml streptomycin and penicillin (Invitrogen/Gibco BRL). For treatment, cells were seeded in six-well plates at 6.25×10^5 cells/well. On the following day, the media were changed to serum-free and the cells were serum-starved for 24 h. Compound 1 was dissolved in DMSO and diluted to the required concentration with serum-free medium. Cultures were then treated with diluted Compound 1 for the indicated time periods. […]
LDLR mRNA expression level was quantitative analysis by RT-PCR. […] The PCR products intensity was quantified by densitometry using Image-Pro Plus software (Media Cybernetics, Silver Spring, Md.).

[1] = test system: mice with carotid artery ligation; assay: Carotid artery ligation model, neointima formation; assay type: in vivo, C57BL/6J mice; conditions: 60 mg/kg body weight oral gavage, from three days before ligation, 28 days; control higher than 3.0; p<0.001
Text: Arteries are vessels that carry blood away from the heart. The carotid arteries are blood vessels that supply blood to the head, neck and brain. One carotid artery is position on each side of the neck. The right common carotid artery branches from the brachiocephalic artery and extends up the right side of the neck. The left common carotid artery branches from the aorta and extends up the left side of the neck. Each carotid artery branches into internal and external vessels near the top of the thyroid. Following the study by Hsing-Chun Chung (Dissertation, 2008, Southern Taiwan University), the carotid artery ligation was conducted on the left common carotid artery in mice to induce neointimal thickening.
This experiment used 8-week-old C57BL/6J male mice having about 25 g of body weight, which were purchased from National Laboratory Animal Center. These mice were maintained at the Laboratory Animal center of National Defense Medical Center on a 12 hour dark/12 hour light cycle in air conditional rooms (18-26° C., 30%-70% humidity).
1. The animals were given Compound 1 by oral gavage three days prior to the surgery and were continuously fed with Compound 1 for 28 days by oral gavage.
2. […]

[2] = test system: PDGF-stimulated A7r5 cells; assay: Wound scratching test, PDGF-stimulated smooth muscle cell migration; assay type: cell-based, Rattus norvegicus; conditions: 3 μg/ml, 24 hours
Procedure: 1. A7r5 cells (5×10^6 cells/ml) were seeded onto a 6-well cell culture plate and incubated at 37° C. overnight.
2. 1×PBS was used to wash the wells twice. Compound 1 with different concentrations in DMEM culture medium containing 1% FBS was added and pretreated for 20 hours.
3. A cross-shape acellular space was created by a sterile 200 μl pipette tip and washed twice with 1×PBS.
4. After removing PBS, 2 ml PDGF in DMEM culture medium containing 1% FBS were added. The cells were photographed by a microscope at 0, 6, 12 and 24 hours, respectively from the time of adding PDGF.
The inhibition of Compound 1 on migration of smooth muscle cells (A7r5 cells) was investigated in a wound scratching test by measuring PDGF-stimulated cell migration distance. The PDGF-stimulated cell culture without Compound 1 treatment was used as positive control.

[3] = test system: PDGF-stimulated A7r5 cells; assay: PDGF-stimulated smooth muscle cell proliferation, MTT assay; assay type: cell-based, Rattus norvegicus; conditions: 3 μg/ml, 20 hours pretreatment, PDGF 24 hours
Text: (§1) MTT assay is commonly used to determine cell proliferation, percent of viable cells, and cytotoxicity. MTT (3[4,5-dimethylthiazol-2-yl]2,5-diphenyltetrazolium bromide) is a yellow dye, which can be absorbed by the living cells and be reduced to purplish blue formazan crystals by succinate tetrazolium reductase in mitochondria. Formazan formation can therefore be used to assess and determine the survival rate of cells. A solubilization solution (usually either dimethyl sulfoxide, an acidified ethanol solution, or a solution of the detergent sodium dodecyl sulfate in diluted hydrochloric acid) is added to dissolve the insoluble purple formazan product into a colored solution. The absorbance of this colored solution can be quantified by measuring at a certain wavelength (usually between 500 and 600 nm) by a spectrophotometer. The more surviving cells, the higher the absorbance. The percentage of cell survival (%)=OD value of experimental group÷OD value of control group×100%. Procedure
(§2) 1. Adherence of cells: 2×10^4 cells/ml/well of A7r5 cells were seeded onto a 24-well plate and incubated at 37° C. for 24 hours.
2. Dosing: 500 ul/well different concentrations of compound 1 were pretreated in culture medium containing 1% FBS/DMEM for 20 hours. […]
3. […] The survival rate of cells was calculated based on the measurement of absorption at the 570 nm wavelength by ELISA reader. […]

[4] = test system: A7r5 cells (rat aortic smooth muscle cells); assay: MTT assay, cytotoxic effect on smooth muscle cells; assay type: cell-based; conditions: 0 μg/ml-3 μg/ml, 24 hours
Text: as §1
1. […]
3. […] The survival rate of cells was calculated based on the measurement of absorption at the 570 nm wavelength by ELISA reader.
(§3) Potential cytotoxicity of Compound 1 to smooth muscle cells was tested. […] As shown in FIGS. 2A/2B, the cytotoxic effect of Compound 1 at different concentrations on smooth muscle cells (A7r5) was determined via MTT assay (FIG. 2A) and LDH assay (FIG. 2B).

ERK1/2 = ERK1/2 phosphorylation in HepG2 by immunoblot; assay type: cell-based, human; conditions: HepG2, 1 h, immunoblot p-ERK1/2
Procedure: FIG. 11A-B show illustrative effective results of the exemplary cyclohexenone Compound 1 stimulates ERK1/2 phosphorylation in HepG2 cell line. (2A), HepG2 cell line was serum-starved overnight and challenged with the indicated concentrations of Compound 1 for 1 h. Whole cell lysates were then immunoblotted with phosphor-ERK1/2 antibody and reprobed with β-actin antibody. Duplicated membrane was probed with ERK1/2 antibody. (2B), the relative expression level of p-ERK1/2 to β-actin was quantified by densitometry. Experiments were conducted in triplicate. Bar represented as mean±SEM.
HepG2 cells were cultured in MEM alpha medium (Invitrogen/Gibco BRL, Grand Island, N.Y., USA). […]
Sixty micrograms of total protein in cell lysate, which was measured using Bradford assay (Sigma-Aldrich, St. Louis, Mo.), was resolved on 12.5% SDS polyacrylamide gels. […] Blots were blocked with 3% BSA and probed with a 1:1,000 dilution of antibodies to phospho-p44/42 (ERK1/2)(Thr202/Tyr204) (Cell Signaling Technology, USA), p44/42MAPK(ERK1/2) (Cell Signaling Technology, USA) or β-actin (Sigma-Aldrich, St. Louis, Mo.), then horse radish-peroxidase (HRP)-conjugated secondary antibody and detected by 3,3′-diaminobenzidine (DAB) substrate kit for peroxidase (Vector Laboratories, Burlingame, Calif.). […]

[5] = test system: A7r5 cells (rat aortic smooth muscle cells); assay: Lactate dehydrogenase (LDH) activity assay, cytotoxicity; assay type: cell-based; conditions: 0 μg/ml-3 μg/ml, 24 hours
Text: Cells have plenty of lactate dehydrogenase (LDH). When cells are healthy, LDH cannot freely cross cell membrane. […] LDH activity in the culture medium is directly proportional to the number of dead cells. The cell viability can be measured quantitatively to detect absorbance by using colorimetric method at a wavelength of 492 nm. The change of the absorbance values come from the fact that LDH catalyzes the conversion of lactate to pyruvate with the concomitant production of NADH. The NADH, in the presence of diaphorase and tetrazolium salt INT, is used to drive the diaphorase-catalyzed production of red formazan product. The present experiment utilizes Cytotoxicity Assay Kit (Promega) to conduct culture medium LDH Quantitation assay.
as §2
2. Dosing: 500 ul/well different concentrations of compound 1 were formulated in culture medium containing 10% FBS/DMEM and incubated for 24 hours. […]
3. […] Absorbance was measured by ELISA reader at the 490 nm wavelength.
as §3

**Q.** Which results are given for `COC1=C(OC)C(O)C(C/C=C(\C)CC/C=C(\C)CCC=C(C)C)C(C)C1=O` (centres unmarked) [Compound 1, 4-hydroxy-2,3-dimethoxy-6-methyl-5-(3,7,11-trimethyldodeca-2,6,10-trienyl)cyclohex-2-enone]?
**A.** time at which LDLR mRNA expression was first increased (LDLR mRNA): 2 h; time at which the LDLR mRNA increase reached a significant level (LDLR mRNA; increased up to 6 h): 4 h; average N/M ratio (neointima area/medial area) [1]: 1.0; decrease in PDGF-stimulated smooth muscle cell migration [2]: about 50%; reduction of PDGF-stimulated smooth muscle cell proliferation [3]: about 50%; survival rate of cells (MTT assay) [4]: cell purification was not affected by the drug treatment; concentration enough to induce activation of ERK1/2 (ERK1/2): 0.5 µM; cytotoxicity (LDH assay) [5]: no cytotoxcity has been observed
